Literature values, collected in paper PMC9164236 (ACS Organic & Inorganic Au, 2022).

Legend:
[1] = system: breast CSCs

CC[C@@H](C(=O)[C@@H](C)[C@@H](O)[C@H](C)[C@@H]1O[C@@H]([C@@H](CC)C(=O)O)CC[C@@H]1C)[C@H]1O[C@]2(C=C[C@@H](O)[C@]3(CC[C@@](C)([C@H]4CC[C@](O)(CC)[C@H](C)O4)O3)O2)[C@H](C)C[C@@H]1C [Sal, Salinomycin]
Stability in the presence of iron(III) chloride over time: degrade
Reduction of the proportion of CSCs relative to paclitaxel [1]: > 100 fold
